Patent publication US20120129811A1, “TRICYCLIC INHIBITORS OF PRO-MATRIX METALLOPROTEINASE ACTIVATION” (priority 2010, published 2012)

Key:
[1] = system: rats with SCW-induced arthritis; assay: Efficacy in rats with SCW-induced arthritis (ankle thickness, clinical scores); format: in vivo, rat; settings: for Ankle thickness, Day 18 / Clinical Scores (0-8), Day 18: Day 18 (start of treatment); for Ankle thickness, Day 18 / Ankle thickness, Day 26 / Clinical Scores (0-8), Day 18 / Clinical Scores (0-8), Day 26: mean n=5; for % Inh (disease associated increase in ankle thickness): Day 26
Description: A polyarthritis can be induced in female Lewis rats following i.p. administration of streptococcal cell wall (SCW) proteoglycan-polysaccharides (PG-PS) (J Exp Med 1977; 146:1585-1602). The model has an acute phase (days 3-7) that is complement and neutrophil-dependent and that resolves. A chronic erosive phase begins at about day ten and is dependent on the development of specific T cell immunity to the PG-GS, which resists digestion and remains present in synovial macrophages for months. Like rheumatoid arthritis, SCW-induced arthritis is reduced by TNF inhibitors, and the dependence of SCW-induced arthritis on macrophages (Rheumatology; 2001; 40:978-987) and the strong association of rheumatoid arthritis severity with synovial-tissue macrophage counts (Ann Rheum Dis; 2005; 64:834-838) makes SCW-arthritis an attractive model for testing potential therapeutic agents. SCW PG-PS 10S (Beckton Dickinson Cat#210866) suspended in saline was vortexed for 30 seconds and sonicated for 3 min with a probe type sonicator prior to injection. Female Lewis (LEW/N) rats, 5-6 weeks of age (80-100 g) were injected (i.p.) with SCW PG-PS (15 μg of rhamnose/gram BW) in the lower left quadrant of the abdomen using a 1 mL syringe fitted with a 23-gauge needle. Control (disease-free) rats were treated in a similar manner with sterile saline. Control rats were sacrificed on day 5 and groups of SCW-injected rats were sacrificed on day 5 when acute inflammation was maximal or on day 18 when chronic inflammation was established.
To induce arthritis, Female Lewis (LEW/N) rats, 5-6 weeks of age (80-100 g) were injected (i.p.) with SCW PG-PS as described above. Eighteen days later, arthritis was well established. Calipers were used to measure the width (anterior to posterior surface) of the left and right hind ankles of each rat. Each ankle was measured 3 times and averaged, and treatment groups were randomized based on ankle thickness (Table 6). Commencing on day 18, randomized groups of arthritic rats (n=5 rats/group) received vehicle or 5, 20, or 50 mg/kg Compound-α BID by oral gavage. Vehicle consisted of an aqueous mixture containing 2% (v:v) N-methylpyrrolidone, 5% (v:v) glycerine, and 20% (w:v) captisol. Treatment continued daily through the morning of day 26.
Hind paw inflammation clinical scores were assigned based on swelling and erythema.

[2] = target: T1, MMP9 (Rattus norvegicus, UniProt P50282); assay: Western blot of pro and active MMP9 in ankles of rats with SCW-induced arthritis; format: in vivo; settings: Day 26, four hours after AM dose
T1 construct: Pro and active MMP9 were abundantly present in ankles of SCW-induced vehicle-treated rats; from tissue; host or cells: tibia-tarsus joints (ankles) of female Lewis rats
Protocol: Hind-limbs were skinned, severed just above the tibia-tarsus joint and below the metatarsals, and the tibia-tarsus joints (ankles) were weighed, snap frozen and pulverized on dry ice using a hammer and anvil. The pulverized tissue was suspended in 3 volumes (w:v) of ice-cold homogenization buffer containing 50 mM Tris pH 7.5, 150 mM NaCl, 5 mM EDTA, 1% Triton X100, 0.05% Brij 30, 10% dimethylsulfoxide and Complete EDTA-free Protease Inhibitor Cocktail (Roche Diagnostics). The suspended tissue was homogenized sequentially with a Kinematica AG Polytron and a Dounce homogenizer. Homogenates were centrifuged at 16,000×g for 10 min at 4° C. and the soluble fractions were saved. Dimethylsulfoxide was removed from a portion of each soluble fraction using PD MiniTrap™ G-25 desalting columns (GE Healthcare). Homogenates (0.25 mL), free of DMSO, were diluted with an equal volume of binding buffer (i.e., homogenization buffer without dimethylsufoxide) and adjusted to contain 50 μL of a 50% slurry of gelatin-conjugated sepharose. Following 2 hours of rotation at 4° C. the beads were washed twice in binding buffer and eluted in 100 μL 2×-reducing Laemmli buffer with heating to 95° C. for 5 minutes. […]

[3] = 5 mg/kg BID oral gavage Day 18-26
[4] = 20 mg/kg BID oral gavage Day 18-26
[5] = 50 mg/kg BID oral gavage Day 18-26

T1 sequence (P50282 108-708): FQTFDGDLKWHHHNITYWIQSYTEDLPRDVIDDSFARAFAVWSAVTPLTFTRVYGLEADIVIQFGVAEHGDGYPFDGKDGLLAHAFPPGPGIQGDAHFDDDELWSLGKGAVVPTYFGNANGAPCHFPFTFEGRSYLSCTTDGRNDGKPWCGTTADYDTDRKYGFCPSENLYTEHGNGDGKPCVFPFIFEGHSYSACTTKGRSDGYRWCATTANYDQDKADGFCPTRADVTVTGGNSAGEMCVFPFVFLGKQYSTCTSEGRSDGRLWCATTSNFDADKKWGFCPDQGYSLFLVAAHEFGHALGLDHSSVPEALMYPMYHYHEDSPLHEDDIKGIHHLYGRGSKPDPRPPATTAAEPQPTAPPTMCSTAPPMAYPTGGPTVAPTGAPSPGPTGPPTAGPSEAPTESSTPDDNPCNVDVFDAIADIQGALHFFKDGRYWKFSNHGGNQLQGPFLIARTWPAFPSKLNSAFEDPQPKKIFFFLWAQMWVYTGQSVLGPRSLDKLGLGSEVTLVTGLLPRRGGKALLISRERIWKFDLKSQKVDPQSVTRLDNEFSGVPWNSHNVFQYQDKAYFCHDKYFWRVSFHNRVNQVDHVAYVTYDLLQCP

Cc1nc(C)c(-c2csc(Nc3cc(S(N)(=O)=O)ccc3OC(C)C)n2)s1 [Compound α, 3-(2′,4′-Dimethyl-[4,5′]bithiazolyl-2-ylamino)-4-isopropoxy-benzenesulfonamide.HBr]
Day 26 Δ mm (vs. group 1) [1, 3]: 3.67 mm | Ankle thickness, Day 18 [1, 3]: 11.79 mm | % Inh (disease associated increase in ankle thickness) [1, 3]: 27% | Ankle thickness, Day 26 [1, 3]: 10.93 mm | Clinical Scores, Δ Day 18 vs. day 26 ([1]; 5 mg/kg Day 18-26): −1.20 | Clinical Scores (0-8), Day 18 ([1]; 5 mg/kg Day 18-26): 8.00 | Clinical Scores (0-8), Day 26 ([1]; 5 mg/kg Day 18-26): 6.80 | Day 26 Δ mm (vs. group 1) [1, 4]: 3.15 mm | Ankle thickness, Day 18 [1, 4]: 11.76 mm | % Inh (disease associated increase in ankle thickness) [1, 4]: 37% | Ankle thickness, Day 26 [1, 4]: 10.42 mm | Clinical Scores, Δ Day 18 vs. day 26 ([1]; 20 mg/kg Day 18-26): −2.80 | Clinical Scores (0-8), Day 18 ([1]; 20 mg/kg Day 18-26): 8.00 | Clinical Scores (0-8), Day 26 ([1]; 20 mg/kg Day 18-26): 5.20 | Day 26 Δ mm (vs. group 1) [1, 5]: 2.73 mm | Ankle thickness, Day 18 [1, 5]: 11.68 mm | % Inh (disease associated increase in ankle thickness) [1, 5]: 46% | Ankle thickness, Day 26 [1, 5]: 9.99 mm | Clinical Scores, Δ Day 18 vs. day 26 ([1]; 50 mg/kg Day 18-26): −3.40 | Clinical Scores (0-8), Day 18 ([1]; 50 mg/kg Day 18-26): 7.80 | Clinical Scores (0-8), Day 26 ([1]; 50 mg/kg Day 18-26): 4.40 | effect on ankle thickness measurements ([1]; 5, 20, 50 mg/kg BID, Day 18-26): dose-dependent decrease in ankle thickness measurements | effect on clinical score measurements ([1]; 5, 20, 50 mg/kg BID, Day 18-26): dose dependent decrease in clinical score measurements | effect on abundance of proMMP9 in ankles ([2]; mAb-L51/82): did not reduce the abundance of proMMP-9 | effect on abundance of proMMP9 in ankles ([2]; mAb-L51/82, listed as Compound-α): did not reduce the abundance of proMMP9
